Laboratory results taken from the supplement of paper PMC10307832.

Columns and labels:
Assay in all cases: relative viability (nuclei count vs DMSO), 5 days (fraction); higher = more cells survive
[1] = compound: CC1=NN=C(O1)C2=NN=C(C=C2)N3CCC(CC3)OC4=C(C=CC(=C4)F)Cl + CS(=O)(=O)CCNCc1ccc(-c2ccc3ncnc(Nc4ccc(OCc5cccc(F)c5)c(Cl)c4)c3c2)o1 [Lapatinib] (partner 2 µM)
Procedure, shortened: (§1)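 Relative viability divides the nuclei count in treated wells by that in vehicle wells. Lung cancer cell lines were seeded in 1536-well plates, dosed by pin tool the next day, and fixed and stained after 5 days in one step with final 0.05% Triton X-100, 1% formaldehyde and 1 ug/ml Hoechst. Dosing was a single drug or a fixed anchor-drug dose plus five library-drug doses (not always all listed) in √10 steps, and values are medians of duplicate plates imaged at 4×.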

Tosedostat + Dasatinib = compound: CC(C)C[C@@H](C(=O)N[C@H](C(=O)OC1CCCC1)c1ccccc1)[C@H](O)C(=O)NO [Tosedostat] + Cc1nc(Nc2ncc(C(=O)Nc3c(C)cccc3Cl)s2)cc(N2CCN(CCO)CC2)n1 [Dasatinib] (partner 0.075 µM)
Procedure, shortened: as §1

Tosedostat + Linsitinib = compound: CC(C)C[C@@H](C(=O)N[C@H](C(=O)OC1CCCC1)c1ccccc1)[C@H](O)C(=O)NO [Tosedostat] + C[C@]1(O)C[C@@H](c2nc(-c3ccc4ccc(-c5ccccc5)nc4c3)c3c(N)nccn32)C1 [Linsitinib] (partner 1 µM)
Procedure, shortened: as §1

Tosedostat + Pemetrexed = compound: CC(C)C[C@@H](C(=O)N[C@H](C(=O)OC1CCCC1)c1ccccc1)[C@H](O)C(=O)NO [Tosedostat] + Nc1nc2[nH]cc(CCc3ccc(C(=O)N[C@@H](CCC(=O)O)C(=O)O)cc3)c2c(=O)[nH]1 [Pemetrexed] (partner 0.2 µM)
Procedure, shortened: as §1

Cell Line	relative viability ([1]; first compound 0.253 µM)	relative viability ([1]; first compound 0.8 µM)	relative viability ([1]; first compound 2.53 µM)	relative viability ([1]; first compound 8 µM)	relative viability (Tosedostat + Dasatinib; first compound 0.02 µM)	relative viability (Tosedostat + Dasatinib; first compound 0.06325 µM)	relative viability (Tosedostat + Dasatinib; first compound 0.2 µM)	relative viability (Tosedostat + Dasatinib; first compound 0.6325 µM)	relative viability (Tosedostat + Dasatinib; first compound 2 µM)	relative viability (Tosedostat + Linsitinib; first compound 0.02 µM)	relative viability (Tosedostat + Linsitinib; first compound 0.06325 µM)	relative viability (Tosedostat + Linsitinib; first compound 0.2 µM)	relative viability (Tosedostat + Linsitinib; first compound 0.6325 µM)	relative viability (Tosedostat + Linsitinib; first compound 2 µM)	relative viability (Tosedostat + Pemetrexed; first compound 0.02 µM)	relative viability (Tosedostat + Pemetrexed; first compound 0.06325 µM)	relative viability (Tosedostat + Pemetrexed; first compound 0.2 µM)	relative viability (Tosedostat + Pemetrexed; first compound 0.6325 µM)	relative viability (Tosedostat + Pemetrexed; first compound 2 µM)
LK-2	0.982	0.945	0.947	0.818	0.29	0.275	0.296	0.4	0.267	0.883	0.465	0.562	0.743	0.913	0.244	0.249	0.348	0.274	0.374
NCI-H2405	0.756	0.809	0.859	0.754	0.221	0.266	0.218	0.211	0.164	0.883	0.963	0.925	0.965	0.862	1.02	1.04	1.05	0.875	0.85
NCI-H520	0.888	0.84	0.82	0.764	0.146	0.202	–	0.243	0.28	1.13	0.962	0.944	1.02	1.06	0.728	0.773	0.743	0.782	0.734
NCI-H2085	0.644	0.627	0.752	0.612	0.205	0.234	0.256	0.276	0.307	0.935	0.889	0.724	0.838	0.836	–	1.02	0.929	0.959	0.714
NCI-H1944	0.452	0.526	0.553	0.426	0.226	0.211	0.215	0.208	0.194	1.17	1.14	1.28	1.12	1.02	0.626	0.656	0.84	0.619	0.819
LXF-289	0.643	0.672	0.696	0.584	0.199	0.248	0.244	0.225	0.184	1.02	0.879	1.02	0.946	0.994	0.949	0.978	1.05	0.944	1.07
NCI-H596	–	0.845	0.932	0.888	0.648	0.623	0.614	0.656	0.619	1.21	1.07	1.22	1.05	1.06	0.468	0.488	0.515	0.497	0.45
NCI-H441	–	–	–	–	0.702	0.61	0.583	0.445	0.539	0.487	0.544	0.473	0.402	0.403	0.228	0.246	0.275	0.266	0.309
NCI-H2126	0.552	0.759	0.702	0.699	0.611	0.662	0.636	0.63	0.558	0.586	0.682	0.778	0.677	0.623	0.644	0.698	0.708	0.705	0.611
